Assay results taken from PubChem BioAssay (NCI).
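Five concentrations, 48 hours, 96-well plates. TGI marks complete inhibition of growth.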

Tests used:
Assay in all cases: DTP human tumour cell line panel, 48 h
786-0 renal = test system: 786-0 renal
A498 renal = test system: A498 renal
A549 NSCLC = test system: A549 NSCLC
ACHN renal = test system: ACHN renal
CAKI-1 renal = test system: CAKI-1 renal
CCRF-CEM leukemia = test system: CCRF-CEM leukemia
COLO 205 colon = test system: COLO 205 colon
DLD-1 colon = test system: DLD-1 colon
DMS 114 small cell lung = test system: DMS 114 small cell lung
DMS 273 small cell lung = test system: DMS 273 small cell lung
EKVX NSCLC = test system: EKVX NSCLC
HCC-2998 colon = test system: HCC-2998 colon
HCT-116 colon = test system: HCT-116 colon
HCT-15 colon = test system: HCT-15 colon
HL-60(TB) leukemia = test system: HL-60(TB) leukemia
HOP-18 NSCLC = test system: HOP-18 NSCLC
HOP-62 NSCLC = test system: HOP-62 NSCLC
HOP-92 NSCLC = test system: HOP-92 NSCLC
HT29 colon = test system: HT29 colon
IGROV1 ovarian = test system: IGROV1 ovarian
K-562 leukemia = test system: K-562 leukemia
KM12 colon = test system: KM12 colon
KM20L2 colon = test system: KM20L2 colon
LXFL 529 NSCLC = test system: LXFL 529 NSCLC
M14 melanoma = test system: M14 melanoma
MALME-3M melanoma = test system: MALME-3M melanoma
MOLT-4 leukemia = test system: MOLT-4 leukemia
NCI-H226 lung = test system: NCI-H226 lung
NCI-H23 lung = test system: NCI-H23 lung
NCI-H460 lung = test system: NCI-H460 lung
NCI-H522 lung = test system: NCI-H522 lung
OVCAR-3 ovarian = test system: OVCAR-3 ovarian
OVCAR-4 ovarian = test system: OVCAR-4 ovarian
OVCAR-5 ovarian = test system: OVCAR-5 ovarian
OVCAR-8 ovarian = test system: OVCAR-8 ovarian
RPMI-8226 leukemia = test system: RPMI-8226 leukemia
RXF-631 renal = test system: RXF-631 renal
SF-268 CNS = test system: SF-268 CNS
SF-295 CNS = test system: SF-295 CNS
SF-539 CNS = test system: SF-539 CNS
SK-MEL-2 melanoma = test system: SK-MEL-2 melanoma
SK-MEL-28 melanoma = test system: SK-MEL-28 melanoma
SK-MEL-5 melanoma = test system: SK-MEL-5 melanoma
SK-OV-3 ovarian = test system: SK-OV-3 ovarian
SN12C renal = test system: SN12C renal
SNB-19 CNS = test system: SNB-19 CNS
SNB-75 CNS = test system: SNB-75 CNS
SNB-78 CNS = test system: SNB-78 CNS
SR leukemia = test system: SR leukemia
SW-620 colon = test system: SW-620 colon
TK-10 renal = test system: TK-10 renal
U251 CNS = test system: U251 CNS
UACC-257 melanoma = test system: UACC-257 melanoma
UACC-62 melanoma = test system: UACC-62 melanoma
UO-31 renal = test system: UO-31 renal
M19-MEL melanoma = test system: M19-MEL melanoma
XF 498 CNS = test system: XF 498 CNS

Measured: TGI

Cc1ccccc1C1CC(c2ccccc2)=NO1 (stereo unspecified)
not listed: M19-MEL melanoma | XF 498 CNS
> 100 µM: all other assays above

COc1ccc(CCc2cc(OC)c(O)c(OC)c2)cc1
91.6 µM: UACC-257 melanoma
58.8 µM: SK-MEL-28 melanoma
not listed: A498 renal | HCT-15 colon | HL-60(TB) leukemia | HOP-18 NSCLC | SF-295 CNS | TK-10 renal
> 100 µM: all other assays above
